One may read the IC50 as the concentration needed to halve the response being measured. A higher IC50 goes with lower potency.

The values that follow come from publication PMC8578629, “Photoactivated cell-killing amino-based flavylium compounds” (Scientific Reports, 2021).

One series has as its system HaCaT cells. Description: Cellular uptake by HaCaT cells (overall uptake, adsorption/absorption ratio, kinetics). Conditions: for % Uptake ± SEM: 4 h; for Uptake amount, range over the initial concentrations: 4 h incubation, 6.25–100 μM. Format: in vitro ADME, human. The protocol:
The cellular uptake of the different compounds by HaCaT cells was determined following the protocol: cells were seeded at a density of 4 × 10^4 cells/well onto 12-well plates (1060 μL per well) and after 24 h the compounds were added to the plates in different concentrations (6.25–100 μM; 1060 μL per well) and incubated for a period of 4 h at 37 °C in an atmosphere of 5% CO2 and in the presence of DMEM with 2% FBS. Then, the medium with the compounds was removed, cells are washed with PBS to remove any extracellular compounds and the same volume of DMSO (1060 µL) was added to cells. After 60 min in the dark, the plates were submitted to fluorescence determination. The fluorescence intensity of each well was then recorded at the different wavelength pairs specific for each tested compound (ex/em) in a FlexStation 3 Multi-Mode Microplate Reader. The fluorescence values were then used to plot into the corresponding calibration curves and the uptake amounts were determined. • Fl577/658 = 19.734 × Conc (7NEt24′NMe2), μM; Fl577/769 = 0.2869 × Conc (7NEt2st4′NMe2), μM; • Fl577/635 = 24.556 × Conc (7NEt24′NH2), μM; Fl577/635 = 42.851 × Conc (PpIX), μM;
The ratio between the absorption and surface adsorption by HaCaT for each compound was performed. Cells were seeded in the same conditions as previously stated. After 24 h, compounds were added to the plates at the concentration of 100 μM (1060 μL per well) and incubated for a period of 4 h at 37 °C in an atmosphere of 5% CO2 and in the presence of DMEM with 2% FBS. After incubation, the medium with the compounds was removed and Dulbecco’s phosphate buffer (DPBS) was added (1060 μL per well). The fluorescence intensity of each well was then determined at the different wavelength pairs specific for each tested compound (ex/em) using a FlexStation 3 Multi‐Mode Microplate Reader. After this, 300 μL of Trypan Blue was added ([…]) to each well and the fluorescence intensity was determined in the same conditions. Cells with DPBS and cells with DPBS + Trypan Blue were used as controls. • Fl577/658 = 19.734 × Conc (7NEt24′NMe2), μM; Fl577/769 = 0.2869 × Conc (7NEt2st4′NMe2), μM; • Fl577/635 = 24.556 × Conc (7NEt24′NH2), μM; Fl577/635 = 42.851 × Conc (PpIX), μM;
The cellular uptake kinetics of the different compounds by HaCaT cells was determined as follows: cells were seeded at a density of 4 × 10^4 cells/well onto 12-well plates (1060 μL per well) and after 24 h compounds were added to the plates at a concentration of 100 μM (1060 μL per well) and incubated for different time periods (15, 30, 60, 120, 180 and 240 min) at 37 °C in an atmosphere of 5% CO2 and in the presence of DMEM with 2% FBS. After each time period, the medium with the compounds was removed and DMSO was added to cells. After 60 min in the dark the plates were submitted to fluorescence determination. The fluorescence intensity of each well was then determined at the different wavelength pairs specific for each tested compound (ex/em) (FlexStation 3 Multi-Mode Microplate Reader). The fluorescence values were then used to plot into the corresponding calibration curves and the uptake amounts were determined.

Details of series [1]: method as in doi:10.1016/j.cplett.2017.02.055. The note with it: cited from earlier work.
A short description of series [2]: Fluorescence quantum yield by the absolute method (integrating sphere). It is filed as physicochemical. Conditions: in DMSO. The protocol: Based on the absorbance maxima of the different compounds (Fig. S2), the measurement of the quantum yield (QY) of the synthesized flavylium derivatives was performed using a calibrated Quantaurus-QY stand-alone integrating sphere setup C11347-11 (Hamamatsu Photonics, Hamamatsu, Japan) equipped with an integration sphere, a monochromator, a spectrograph, a 150 W xenon light source and a silicon charge coupled device. Each compound was dissolved in DMSO and diluted to ensure an absorbance of 0.1 from the λmax of excitation forward. Each compound was then irradiated at the corresponding wavelength and the absolute quantum yield determined. The fluorescence spectra was also recorded (Fig. S3). For each compound, four independent experiments were performed.

The nature of series [3]: MTT cytotoxicity assay, keratinocytes. Format: cell-based. Conditions: human, HaCaT cells (keratinocytes), dark. The protocol: The cytotoxicity of amino-based flavylium compounds to HFF-1 (ATCC Number: SCRC-1041) and HaCaT cells was evaluated using the standard MTT assay. Briefly, cells were seeded at a density of 8 × 10^5 and 4 × 10^4 cells/mL, respectively, in 96-well plate and incubated at 37 °C in a 5% CO2 atmosphere. Cells were allowed to grow for 24 h or until reaching monolayer confluency, and serially diluted compound solutions (6.3–100 µM) were added to the plate wells. The stock solutions of each compound were prepared at 200 mM in DMSO, the maximum % of DMSO in the cells was 0.05%. Then, cells were incubated for 48 h at 37 °C, after which the plate wells were washed once with phosphate buffered saline (PBS, Sigma-Aldrich), followed by addition of a 0.45 mg/mL MTT solution to each well. Crystals were allowed to form for 1.5 h. The reaction was stopped by rejecting the medium followed by the addition of 100 µL of DMSO (Sigma-Aldrich). The absorbance was read at 570 nm in FlexStation 3 Multi-Mode Microplate Reader (Molecular Devices, California, USA).
On the technique in general: Tetrazolium dyes change colour on reduction, which living cells bring about.

On to `C=CC1=C(C)c2cc3[nH]c(cc4nc(cc5[nH]c(cc1n2)c(C)c5CCC(=O)O)C(CCC(=O)O)=C4C)c(C)c3C=C` [PpIX, protoporphyrin IX, reference compound], for which the “% Uptake ± SEM” value stood at 0.694 ± 0.110% with HaCaT cells (initial concentration 6.25 μM); 0.615 ± 0.050% with HaCaT cells (initial concentration 12.5 μM); 0.508 ± 0.021% in the series on HaCaT cells (initial concentration 25 μM); 0.667 ± 0.040% in the series with HaCaT cells (initial concentration 50 μM); 0.659 ± 0.037% in the series on HaCaT cells (initial concentration 100 μM). Further, in series [1], the Fluorescence quantum yield is 8.5%.
As for `CCN(CC)c1ccc2ccc(/C=C/c3ccc(N(C)C)cc3)[o+]c2c1` [7NEt2st4′NMe2, 7-(diethylamino)-2-(4′-dimethylaminostyryl)-benzopyrylium], in series [2], the “Quantum yield of fluorescence (Φf), mean ± SD” value came out at 3.40 ± 0.17%. Besides, in the series with HaCaT cells, the “Uptake amount, range over the initial concentrations” value is 3.564–5.830%. The “% Uptake ± SEM” value is listed as 4.448 ± 0.876% with HaCaT cells (initial concentration 6.25 μM); 4.236 ± 0.628% in the series on HaCaT cells (initial concentration 12.5 μM); 3.564 ± 0.613% in the series with HaCaT cells (initial concentration 25 μM); 4.091 ± 0.552% with HaCaT cells (initial concentration 50 μM); 5.830 ± 1.569% with HaCaT cells (initial concentration 100 μM). Besides, the IC50 at 48 h came out at 91 ± 0.8 µM in series [3] (monolayer confluence) and 35.42 ± 0.02 µM in series [3] (proliferation).
Consider `CCN(CC)c1ccc2ccc(-c3ccc(N(C)C)cc3)[o+]c2c1` [7NEt24′NMe2, 7-diethylamino-4′-dimethylamino-benzopyrylium], for which the “Quantum yield of fluorescence (Φf), mean ± SD” value in series [2] is on record as 5.83 ± 0.28%. For the same compound, the “Uptake amount, range over the initial concentrations” value in the series on HaCaT cells is 2.745–4.156%. Also, the “% Uptake ± SEM” value amounted to 3.416 ± 0.629% with HaCaT cells (initial concentration 6.25 μM); 4.156 ± 0.764% in the series with HaCaT cells (initial concentration 12.5 μM); 2.745 ± 0.504% in the series on HaCaT cells (initial concentration 25 μM); 3.660 ± 0.831% in the series with HaCaT cells (initial concentration 50 μM); 3.523 ± 0.695% in the series with HaCaT cells (initial concentration 100 μM).
For the compound `CCN(CC)c1ccc2ccc(-c3ccc(N)cc3)[o+]c2c1` [7NEt24′NH2, 4′-amino-7-diethylamino-benzopyrylium], the “Uptake amount, range over the initial concentrations” value in the series with HaCaT cells is listed as 1.229–2.192%. The “% Uptake ± SEM” value was 1.229 ± 0.296% with HaCaT cells (initial concentration 6.25 μM); 1.828 ± 0.419% in the series on HaCaT cells (initial concentration 12.5 μM); 1.977 ± 0.581% in the series with HaCaT cells (initial concentration 25 μM); 2.192 ± 0.662% in the series with HaCaT cells (initial concentration 50 μM); 1.785 ± 0.383% in the series on HaCaT cells (initial concentration 100 μM). Further, the IC50 at 48 h in series [3] (monolayer confluence) is 29.8 ± 0.8 µM; in series [3] (proliferation), 8.9 ± 0.2 µM.
